Where a name gives a salt, the structure may show the parent alone.

This is an account of results in patent US9073876B2, “Flap modulators” (JANSSEN PHARMACEUTICA NV, priority 2013, dated 2015).

In one assay the target is human FLAP (Homo sapiens (Human), UniProt P20292). Briefly: FLAP binding assay (HTRF). Conditions: human FLAP-containing membranes, HTRF format; average of two assay plates, duplicates; read-out: FLAP Binding wild type HTRF Ki. A digest of the protocol:
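Samples were run in duplicate on each of two plates and the plate results averaged. Read-out is the HTRF signal ratio.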

The test system of assay [1] is leukotriene pathway in human whole blood (LTB4 levels). In words: Human whole blood assay (LTB4). The class given is cell-based. Conditions: human whole blood diluted 1:1 in RPMI, stimulated with calcium ionophore A23187; single replicate. An outline of the steps: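 Heparinised human whole blood diluted 1:1 in RPMI, pre-incubated 15 min at 37° Celsius with compound, then stimulated with A23187 (7 μg/mL) for 30 min at 37° Celsius. Plasma LTB4 measured by immunoassay kit; IC50 from 4-parameter fit; single replicate per plate, at least one healthy donor.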

Sequence of human FLAP (P20292 whole entry): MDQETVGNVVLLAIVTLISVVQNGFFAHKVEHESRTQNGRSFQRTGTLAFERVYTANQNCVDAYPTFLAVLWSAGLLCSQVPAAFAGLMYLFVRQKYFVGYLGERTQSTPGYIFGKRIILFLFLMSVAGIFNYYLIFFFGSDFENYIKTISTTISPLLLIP

The Ki is the dissociation constant of the complex between target and ligand, obtained from inhibition or displacement. As usually defined, the IC50 is the concentration that inhibits the measured activity by half. With `Nc1cnc(-c2ccc(C3CCC3)c(Oc3nccc(-c4ccccc4)n3)c2F)cn1` [Example 87, 5-{4-Cyclobutyl-2-fluoro-3-[(4-phenylpyrimidin-2-yl)oxy]phenyl}pyrazin-2-amine], the inhibitory constant (Ki) on human FLAP came out at 1 nM. The IC50 in assay [1] stood at 6.7 nM.
Taken in the same sequence, the figures for `Nc1cnc(-c2ccc(C3CCC3)c(OCc3cc(F)ccc3Cl)c2F)cn1` [Example 45, 5-{3-[(2-Chloro-5-fluorobenzyl)oxy]-4-cyclobutyl-2-fluorophenyl}pyrazin-2-amine] were 193 nM and 720 nM.
With `Fc1c(-c2cnc3c(c2)OCCN3)ccc(C2CCC2)c1OCc1ccc(C(F)(F)F)cc1` [Example 191, 7-(4-Cyclobutyl-2-fluoro-3-{[4-(trifluoromethyl)benzyl]oxy}phenyl)-3,4-dihydro-2H-pyrido[3,2-b][1,4]oxazine], on human FLAP, the Ki was 250 nM. Further, the IC50 in assay [1] was 3430 nM.
`NC(=O)c1ccccc1COc1c(C2CCC2)ccc(-c2cnc(N)cn2)c1F` [Example 19, 2-{[3-(5-Aminopyrazin-2-yl)-6-cyclobutyl-2-fluorophenoxy]methyl}benzamide]: on human FLAP, the Ki worked out at 100 nM. Besides, the IC50 in assay [1] amounted to 812 nM.
Consider `Nc1cnc(-c2ccc(C3CCC3)c(Oc3ccnnc3)c2F)cn1` [Example 257, 5-(4-Cyclobutyl-2-fluoro-3-(pyridazin-4-yloxy)phenyl)pyrazin-2-amine], for which the inhibition constant Ki on human FLAP was 31.1 nM. The IC50 in assay [1] was found to be 332 nM.
With `NCCNc1nccc(Oc2c(C3CCC3)ccc(-c3cnc(N)cn3)c2F)n1` [Example 150, N-{4-[3-(5-Aminopyrazin-2-yl)-6-cyclobutyl-2-fluorophenoxy]pyrimidin-2-yl}ethane-1,2-diamine], the Ki at human FLAP is 176 nM. Also, in assay [1], the IC50 worked out at 3590 nM.
Taken in the same sequence, the figures for `Cc1cc(Oc2c(C3CCC3)ccc(-c3cnc(N)cn3)c2F)ccc1S(C)(=O)=O` [Example 126, 5-{4-Cyclobutyl-2-fluoro-3-[3-methyl-4-(methylsulfonyl)phenoxy]phenyl}pyrazin-2-amine] were 10.7 nM and 406 nM.
Taken in the same sequence, the figures for `N#Cc1ccc(Oc2c(C3CCC3)ccc(-c3cnc(N)cn3)c2F)cc1` [Example 101, 4-[3-(5-Aminopyrazin-2-yl)-6-cyclobutyl-2-fluorophenoxy]benzonitrile] were 23 nM and 914 nM.
Regarding `COc1c(C(C)(C)C)ccc(-c2cnc(N)cn2)c1F` [Example 205, 5-(4-tert-Butyl-2-fluoro-3-methoxyphenyl)pyrazin-2-amine], the Ki on human FLAP was found to be 40.2 nM. Further, the IC50 in assay [1] is 150 nM.
Taken in the same sequence, the figures for `Nc1cnc(-c2ccc(C3CCC3)c(Oc3nccc(-c4cccs4)n3)c2F)cn1` [Example 91, 5-{4-Cyclobutyl-2-fluoro-3-[(4-thiophen-2-ylpyrimidin-2-yl)oxy]phenyl}pyrazin-2-amine] were 1 nM and 4.8 nM.
For the compound `N#Cc1cccnc1Oc1c(C2CCC2)ccc(-c2cnc(N)cn2)c1F` [Example 110, 2-[3-(5-Aminopyrazin-2-yl)-6-cyclobutyl-2-fluorophenoxy]pyridine-3-carbonitrile], on human FLAP, the Ki came out at 2.4 nM. The IC50 in assay [1] worked out at 52.2 nM.
On to `Nc1cnc(-c2ccc(CC3CCCCC3)c(Oc3ncccn3)c2F)cn1` [Example 321, 5-(4-(Cyclohexylmethyl)-2-fluoro-3-(pyrimidin-2-yloxy)phenyl)pyrazin-2-amine], for which the Ki on human FLAP came out at 116 nM. Besides, the IC50 in assay [1] is above 10000 nM.
Taken in the same sequence, the figures for `Nc1cnc(-c2ccc(C3CCC3)c(OCCO)c2F)cn1` [Example 250, 2-(3-(5-Aminopyrazin-2-yl)-6-cyclobutyl-2-fluorophenoxy)ethanol] were 99.2 nM and 357 nM.
Consider `CS(=O)(=O)c1cccc(COc2c(C3CCC3)ccc(-c3cnc4c(c3)OCCN4)c2F)c1` [Example 188, 7-(4-Cyclobutyl-2-fluoro-3-{[3-(methylsulfonyl)-benzyl]oxy}phenyl)-3,4-dihydro-2H-pyrido[3,2-b][1,4]oxazine], for which the Ki at human FLAP came to 8.6 nM. Also, the IC50 in assay [1] stood at 1100 nM.
`NC(=O)c1ccnc(Oc2c(C3CCC3)ccc(-c3cnc(N)nc3)c2F)n1` [Example 169, 2-[3-(2-Aminopyrimidin-5-yl)-6-cyclobutyl-2-fluorophenoxy]pyrimidine-4-carboxamide]: on human FLAP, the Ki was 205 nM. The IC50 in assay [1] is 268 nM.
Taken in the same sequence, the figures for `Nc1cnc(-c2ccc(C3CCC3)c(OCc3ccc(CC(=O)O)cc3)c2F)cn1` [Example 23, (4-{[3-(5-Aminopyrazin-2-yl)-6-cyclobutyl-2-fluorophenoxy]methyl}phenyl)acetic acid] were 2 nM and 363 nM.
Turning to `N#Cc1nccc(Oc2c(C3CCC3)ccc(-c3cnc(N)cn3)c2F)n1` [Example 234, 4-(3-(5-Aminopyrazin-2-yl)-6-cyclobutyl-2-fluorophenoxy)pyrimidine-2-carbonitrile], the Ki at human FLAP is 1300 nM. Besides, the IC50 in assay [1] was above 10000 nM.
Taken in the same sequence, the figures for `CCCc1ccc(-c2cnc(N)cn2)c(F)c1Oc1ncccn1` [Example 319, 5-[2-Fluoro-4-propyl-3-(pyrimidin-2-yloxy)phenyl]pyrazin-2-amine] were 337 nM and 284 nM.
Taken in the same sequence, the figures for `Cc1cc(COc2c(C3CCC3)ccc(-c3cnc(N)cn3)c2F)no1` [Example 291, 5-{4-Cyclobutyl-2-fluoro-3-[(5-methylisoxazol-3-yl)methoxy]phenyl}pyrazin-2-amine trifluoroacetic acid salt] were 46.6 nM and 576 nM.
Taken in the same sequence, the figures for `Nc1cnc(-c2ccc(C3CCCC3)c(OCc3ccccc3)c2F)cn1` [Example 212, 5-[3-(Benzyloxy)-4-cyclopentyl-2-fluorophenyl]pyrazin-2-amine] were 64 nM and 1100 nM.
With `CC(C)(C)c1ccc(-c2cnc(N)cn2)c(F)c1O[Si](C)(C)C(C)(C)C` [Example 200, 5-(4-tert-Butyl-3-{[tert-butyl(dimethyl)silyl]oxy}-2-fluorophenyl)pyrazin-2-amine], on human FLAP, the Ki came to 155 nM. In assay [1], the IC50 came to 1360 nM.
With `Oc1c(C2CCC2)ccc(-c2cnc3c(c2)OCCN3)c1F` [Example 185, 6-cyclobutyl-3-(3,4-dihydro-2H-pyrido[3,2-b][1,4]oxazin-7-yl)-2-fluorophenol], the Ki at human FLAP came out at 19.6 nM. Further, the 50% inhibitory concentration (IC50) in assay [1] was 1010 nM.
For `Nc1ncc(-c2ccc(C3CCC3)c(Oc3cc(O)ncn3)c2F)cn1` [Example 171, 6-[3-(2-Aminopyrimidin-5-yl)-6-cyclobutyl-2-fluorophenoxy]pyrimidin-4-ol trifluoroacetate], the Ki on human FLAP stood at 39.8 nM. Further, the IC50 in assay [1] amounted to 252 nM.
Taken in the same sequence, the figures for `CCOC(=O)CCCOc1c(C2CCC2)ccc(-c2cnc(N)cn2)c1F` [Example 245, Ethyl 4-(3-(5-aminopyrazin-2-yl)-6-cyclobutyl-2-fluorophenoxy)butanoate] were 62.2 nM and 2800 nM.
For `Nc1cnc(-c2ccc(C3CCC3)c(Oc3ccncn3)c2F)cn1` [Example 260, 5-(4-Cyclobutyl-2-fluoro-3-(pyrimidin-4-yloxy)phenyl)pyrazin-2-amine], the inhibition constant Ki at human FLAP came out at 19.9 nM. The IC50 in assay [1] stood at 197 nM.
Taken in the same sequence, the figures for `COC(=O)c1ccc(Oc2c(C3CCC3)ccc(-c3cnc(N)cn3)c2F)cc1` [Example 103, Methyl 4-[3-(5-aminopyrazin-2-yl)-6-cyclobutyl-2-fluorophenoxy]benzoate] were 35 nM and 675 nM.
For `CC(C)(C)OC(=O)N1CCCC(COc2c(C3CCC3)ccc(-c3cnc(N)cn3)c2F)C1` (stereo not drawn) [Example 249, tert-Butyl 3-((3-(5-aminopyrazin-2-yl)-6-cyclobutyl-2-fluorophenoxy)methyl)piperidine-1-carboxylate], the Ki on human FLAP was 208 nM. Moreover, in assay [1], the IC50 worked out at 1260 nM.
For the compound `Nc1cnc(-c2ccc(C3CCC3)c(OCCNc3ncccn3)c2F)cn1` [Example 296, N-{2-[3-(5-Aminopyrazin-2-yl)-6-cyclobutyl-2-fluorophenoxy]ethyl}pyrimidin-2-amine trifluoroacetic acid salt], the Ki on human FLAP is 6.8 nM. Besides, the IC50 in assay [1] was 350 nM.
Taken in the same sequence, the figures for `Cc1cc(C)nc(Oc2c(C3CCC3)ccc(-c3cnc(N)nc3)c2F)n1` [Example 167, 5-{4-Cyclobutyl-3-[(4,6-dimethylpyrimidin-2-yl)oxy]-2-fluorophenyl}pyrimidin-2-amine] were 14.7 nM and 45.6 nM.
On to `Nc1cnc(-c2ccc(C3CCC3)c(OCC(O)CN3CCS(=O)(=O)CC3)c2F)cn1` (racemic) [Example 256, 4-(3-(3-(5-Aminopyrazin-2-yl)-6-cyclobutyl-2-fluorophenoxy)-2-hydroxypropyl)thiomorpholine 1,1-dioxide], for which the inhibitory constant (Ki) on human FLAP came out at 434 nM. Besides, the IC50 in assay [1] was 718 nM.
Turning to `COc1cc(Oc2c(C3CCC3)ccc(-c3cnc(N)nc3)c2F)ncn1` [Example 170, 5-(4-cyclobutyl-2-fluoro-3-((6-methoxypyrimidin-4-yl)oxy)phenyl)pyrimidin-2-amine], the Ki at human FLAP is 90.3 nM. The IC50 in assay [1] was 1430 nM.
Taken in the same sequence, the figures for `Nc1cnc(-c2ccc(C3CCC3)c(Oc3ccc(C(=O)O)cn3)c2F)cn1` [Example 154, 6-[3-(5-Aminopyrazin-2-yl)-6-cyclobutyl-2-fluorophenoxy]pyridine-3-carboxylic acid] were 12.5 nM and above 10000 nM.
Turning to `CC(C)c1cc(Oc2c(C3CCC3)ccc(-c3cnc(N)cn3)c2F)ncn1` [Example 147, 5-(4-Cyclobutyl-2-fluoro-3-{[6-(1-methylethyl)pyrimidin-4-yl]oxy}phenyl)pyrazin-2-amine], the Ki on human FLAP turned out to be 6.4 nM. In assay [1], the IC50 was 185 nM.
